Assay [1] addresses Casein kinase I isoform epsilon (Homo sapiens, UniProt P49674). Put plainly: Selectivity interaction (ProQinase) EUB0000171b CSNK1E.
Assay [2] addresses T1, Phosphatidylinositol 3-kinase C2 domain-containing subunit gamma (Homo sapiens) (UniProt O75747).
T1 sequence (whole entry): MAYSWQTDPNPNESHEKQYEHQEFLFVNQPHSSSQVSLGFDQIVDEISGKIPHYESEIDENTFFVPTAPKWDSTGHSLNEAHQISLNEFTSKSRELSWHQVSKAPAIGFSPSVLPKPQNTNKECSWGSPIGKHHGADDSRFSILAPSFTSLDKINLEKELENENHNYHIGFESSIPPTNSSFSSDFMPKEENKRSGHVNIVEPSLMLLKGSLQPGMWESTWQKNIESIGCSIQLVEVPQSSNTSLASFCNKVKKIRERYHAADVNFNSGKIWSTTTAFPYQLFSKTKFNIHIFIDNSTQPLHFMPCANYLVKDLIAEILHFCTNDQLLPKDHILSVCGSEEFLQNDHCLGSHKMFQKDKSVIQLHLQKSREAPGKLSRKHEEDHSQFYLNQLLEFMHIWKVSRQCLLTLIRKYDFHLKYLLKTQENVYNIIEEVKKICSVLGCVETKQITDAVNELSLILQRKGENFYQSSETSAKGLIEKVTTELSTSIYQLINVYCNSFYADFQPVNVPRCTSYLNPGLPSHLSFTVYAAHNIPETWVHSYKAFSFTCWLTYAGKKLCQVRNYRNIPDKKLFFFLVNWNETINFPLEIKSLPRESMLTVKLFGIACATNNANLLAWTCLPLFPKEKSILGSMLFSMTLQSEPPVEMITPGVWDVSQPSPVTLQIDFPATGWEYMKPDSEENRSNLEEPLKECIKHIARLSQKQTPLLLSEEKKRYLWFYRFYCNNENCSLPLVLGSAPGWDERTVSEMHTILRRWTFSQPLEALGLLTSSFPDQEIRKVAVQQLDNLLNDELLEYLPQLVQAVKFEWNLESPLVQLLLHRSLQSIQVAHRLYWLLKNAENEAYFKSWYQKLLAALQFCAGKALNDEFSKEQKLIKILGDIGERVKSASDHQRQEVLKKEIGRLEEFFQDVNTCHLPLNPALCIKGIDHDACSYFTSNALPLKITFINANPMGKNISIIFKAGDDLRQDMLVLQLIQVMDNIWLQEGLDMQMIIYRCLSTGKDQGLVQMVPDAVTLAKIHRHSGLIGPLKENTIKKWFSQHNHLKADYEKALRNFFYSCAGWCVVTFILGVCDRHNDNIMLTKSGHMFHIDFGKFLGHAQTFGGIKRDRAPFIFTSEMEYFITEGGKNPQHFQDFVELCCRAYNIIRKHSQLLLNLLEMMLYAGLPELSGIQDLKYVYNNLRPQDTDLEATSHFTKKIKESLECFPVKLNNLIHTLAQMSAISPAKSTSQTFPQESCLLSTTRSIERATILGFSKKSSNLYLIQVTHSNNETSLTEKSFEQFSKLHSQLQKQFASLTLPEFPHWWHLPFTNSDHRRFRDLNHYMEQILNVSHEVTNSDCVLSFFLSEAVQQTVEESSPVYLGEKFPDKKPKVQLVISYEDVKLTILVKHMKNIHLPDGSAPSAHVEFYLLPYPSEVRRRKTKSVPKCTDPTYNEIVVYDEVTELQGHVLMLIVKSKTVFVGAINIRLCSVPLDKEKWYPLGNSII
The assay can be described thus: Selectivity interaction (Ambit KINOMEscan and KiNATiv profiling in Jurkat cells) EUB0000090b PIK3C2G. Format: cell-based. To be noted: at 1 µM.

For assay [3], the target named is Vasopressin V2 receptor (Homo sapiens, UniProt P30518). The assay can be described thus: Selectivity interaction (Eurofins CEREP Diversity Profile (receptors and ion channels)) EUB0000279b AVPR2. To be noted: at 10 µM.
Sequence of Vasopressin V2 receptor (P30518 whole entry): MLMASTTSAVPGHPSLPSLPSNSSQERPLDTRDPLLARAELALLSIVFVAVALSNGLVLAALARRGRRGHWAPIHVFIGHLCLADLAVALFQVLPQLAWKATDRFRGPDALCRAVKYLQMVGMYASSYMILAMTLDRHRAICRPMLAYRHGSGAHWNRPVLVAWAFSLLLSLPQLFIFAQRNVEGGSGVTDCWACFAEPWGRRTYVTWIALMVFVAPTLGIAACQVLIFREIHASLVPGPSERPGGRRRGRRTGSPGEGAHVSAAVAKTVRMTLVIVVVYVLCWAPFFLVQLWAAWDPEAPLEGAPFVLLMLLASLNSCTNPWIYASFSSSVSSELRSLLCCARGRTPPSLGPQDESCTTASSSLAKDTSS
The target in assay [4] is Serine/threonine-protein kinase 24 (Homo sapiens) (UniProt Q9Y6E0). The assay can be described thus: Selectivity interaction (KinomeScan (DiscoverX)) EUB0000229b STK24. The note with it: at 10 µM.
Sequence of Serine/threonine-protein kinase 24 (Homo sapiens) (Q9Y6E0 whole entry, looked up): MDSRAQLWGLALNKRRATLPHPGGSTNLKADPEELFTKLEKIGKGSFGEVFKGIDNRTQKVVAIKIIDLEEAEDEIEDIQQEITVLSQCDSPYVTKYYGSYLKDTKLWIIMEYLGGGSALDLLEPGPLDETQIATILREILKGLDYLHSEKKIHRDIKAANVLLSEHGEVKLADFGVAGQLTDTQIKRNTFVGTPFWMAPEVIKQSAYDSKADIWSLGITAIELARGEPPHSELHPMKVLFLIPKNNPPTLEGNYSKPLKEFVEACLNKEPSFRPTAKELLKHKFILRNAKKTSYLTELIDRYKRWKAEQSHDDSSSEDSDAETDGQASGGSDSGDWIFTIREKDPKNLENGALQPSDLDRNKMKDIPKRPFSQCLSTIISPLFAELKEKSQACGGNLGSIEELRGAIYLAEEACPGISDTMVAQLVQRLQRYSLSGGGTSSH
Assay [5] concerns the target Glycogen synthase kinase-3 beta (Homo sapiens, UniProt P49841). The assay can be described thus: Selectivity interaction (Kinase panel (DSF assay)) EUB0001559a GSK3B.
Assay [6] addresses T2, Dual specificity tyrosine-phosphorylation-regulated kinase 2 (Homo sapiens) (UniProt Q92630).
T2 sequence (whole entry): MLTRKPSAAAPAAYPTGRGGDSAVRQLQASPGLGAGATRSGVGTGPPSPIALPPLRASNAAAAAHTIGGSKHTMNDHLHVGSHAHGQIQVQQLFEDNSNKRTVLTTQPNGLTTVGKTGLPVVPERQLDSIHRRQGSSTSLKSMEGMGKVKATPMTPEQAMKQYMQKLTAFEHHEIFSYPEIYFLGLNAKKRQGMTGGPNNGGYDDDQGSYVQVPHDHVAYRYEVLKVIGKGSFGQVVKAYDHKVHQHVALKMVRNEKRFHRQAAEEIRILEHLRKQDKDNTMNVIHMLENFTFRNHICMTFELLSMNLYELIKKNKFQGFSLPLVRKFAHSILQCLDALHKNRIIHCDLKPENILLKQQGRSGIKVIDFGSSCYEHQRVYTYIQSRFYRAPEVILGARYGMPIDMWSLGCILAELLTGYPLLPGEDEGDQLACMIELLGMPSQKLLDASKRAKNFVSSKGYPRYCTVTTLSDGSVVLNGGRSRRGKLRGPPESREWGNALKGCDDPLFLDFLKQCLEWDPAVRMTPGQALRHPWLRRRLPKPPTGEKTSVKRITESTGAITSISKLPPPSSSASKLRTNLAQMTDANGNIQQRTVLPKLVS
The assay can be described thus: Selectivity interaction (KinomeScan (DiscoverX)) EUB0001619a DYRK2. The note with it: at 1 µM.

Sequence of Casein kinase I isoform epsilon (P49674 whole entry, looked up, the tested form may be a part, canonical isoform): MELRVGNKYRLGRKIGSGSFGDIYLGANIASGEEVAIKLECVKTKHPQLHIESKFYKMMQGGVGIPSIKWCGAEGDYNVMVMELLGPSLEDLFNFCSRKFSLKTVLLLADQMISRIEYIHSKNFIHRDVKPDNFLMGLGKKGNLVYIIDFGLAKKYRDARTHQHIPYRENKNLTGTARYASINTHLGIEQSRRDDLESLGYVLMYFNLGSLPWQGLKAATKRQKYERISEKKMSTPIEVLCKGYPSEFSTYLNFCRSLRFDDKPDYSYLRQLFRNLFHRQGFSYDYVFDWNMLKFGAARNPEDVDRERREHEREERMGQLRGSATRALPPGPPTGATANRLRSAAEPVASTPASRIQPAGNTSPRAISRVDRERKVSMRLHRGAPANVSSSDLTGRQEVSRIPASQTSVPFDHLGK
Sequence of Glycogen synthase kinase-3 beta (P49841 whole entry, looked up): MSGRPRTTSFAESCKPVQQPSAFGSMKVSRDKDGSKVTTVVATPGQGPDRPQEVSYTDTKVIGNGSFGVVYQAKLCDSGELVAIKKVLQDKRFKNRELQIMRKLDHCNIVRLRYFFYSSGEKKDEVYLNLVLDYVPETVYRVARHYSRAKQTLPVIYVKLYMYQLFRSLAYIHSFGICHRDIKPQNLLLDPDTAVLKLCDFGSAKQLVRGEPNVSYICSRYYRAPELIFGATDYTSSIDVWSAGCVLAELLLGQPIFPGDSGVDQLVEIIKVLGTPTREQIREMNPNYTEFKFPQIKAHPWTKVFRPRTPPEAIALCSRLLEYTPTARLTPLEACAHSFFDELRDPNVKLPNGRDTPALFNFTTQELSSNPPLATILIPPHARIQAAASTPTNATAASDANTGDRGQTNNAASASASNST

As for `C=CC(=O)Nc1cccc(C(=O)Nc2ccc(Nc3cc(-c4[nH]c(SC)nc4C)ccn3)cc2)c1`, the % of control worked out at 57% in assay [1] (at 1 µM) and 21% in assay [1] (at 5 µM).
Take `CN(C)C/C=C/C(=O)Nc1ccc(C(=O)N2CCCC(Nc3ncc(Cl)c(-c4c[nH]c5ccccc45)n3)C2)cc1` (configuration not stated): the % of control in assay [2] worked out at 100%.
The molecule `CC(=O)c1cc(-c2ccccc2OCC2CC2)c2ncccn12` gave a % of control in assay [3] of 109%.
Turning to `COc1cc(N(C)c2ccnc3ccc(C(F)(F)F)cc23)cc(OC)c1OC`, the % binding in assay [4] came out at 95%.
In assay [5], `CN(C(=O)c1cnn2cccnc12)c1cc2c(cc1N1CCOCC1)C(=O)N(C[C@@H](F)C(C)(C)O)C2` gave a dTM of -0.4 K.
On to `N#Cc1cccc(-c2c[nH]c3ncnc(N4CCOCC4)c23)c1`, for which the % of control in assay [6] was found to be 92%.

(Values after ChEMBL document CHEMBL5465560, “Selectivity Literature for EUbOPEN Chemogenomic Library” (2024).)
